Experimental data reported in US20250368650A1, “5-(4-FLUOROPHENYL)-2,3-DIHYDRO-1H-IMIDAZO[1,2-A]IMIDAZOLE DERIVATIVES AS ALK INHIBITORS FOR THE TREATMENT OF FIBROSIS” (CHIESI FARMACEUTICI S.P.A., priority 2022, published 2025).
pKi: −log10 of the molar value. Structures can show the parent of a compound that is named as a salt.

The compounds below were run against human ALK5 (Homo sapiens (Human), UniProt P36897) (assay: ADP-GLO Kinases assay, ALK5 enzymatic activity). Settings: purified recombinant human ALK5 2.6 nM, TGFβ1 peptide 94.5 μM, ATP 0.83 μM, 120 min, 25° C.; pIC50 converted to pKi using the Cheng-Prusoff equation.
Format: biochemical
Description: The enzymatic activity of compounds of the present invention was monitored measuring the formation of ADP using the ADP-GLO Kinases assay. Following the incubation of the purified enzyme, a substrate and ATP, the produced ADP was converted into ATP, which in turn was converted into light by Ultra-Glo Luciferase. The luminescent signal positively correlated with ADP amount and kinase activity. Briefly, the kinase reaction was performed by incubating 2.6 nM of the purified, commercially available human ALK5 (recombinant TGF β1 N-term GST-tagged, 80-end), a final concentration of TGFβ1 peptide 94.5 μM (Promega, T36-58) and ultra-pure ATP (Promega V915B). The ATP concentration was set at the Km value (concentration of substrate which permits the enzyme to achieve half maximal velocity (Vmax)) of ALK5 (0.5 μM). Compound and ALK5 kinase were mixed and incubated for 15 min. Reactions were initiated by addition of ATP at a final concentration in the assay of 0.83 μM. After an incubation of 120 min, the reaction was stopped, and ADP production detected with ADP-Glo kit according to manufacturer's indications. All reaction and incubation steps were performed at 25° C. and the assays were performed in 384-well format and validated using a selection of reference compounds tested in 11-point concentration-response curve.
Results were expressed as pIC50 (negative logarithm of IC50) and subsequently converted to pKi (negative logarithm of […]) using the Cheng-Prusoff equation. The higher the value of pKi, the greater the inhibition of ALK5 activity.

human ALK5, sequence (P36897 80-503 limits assumed): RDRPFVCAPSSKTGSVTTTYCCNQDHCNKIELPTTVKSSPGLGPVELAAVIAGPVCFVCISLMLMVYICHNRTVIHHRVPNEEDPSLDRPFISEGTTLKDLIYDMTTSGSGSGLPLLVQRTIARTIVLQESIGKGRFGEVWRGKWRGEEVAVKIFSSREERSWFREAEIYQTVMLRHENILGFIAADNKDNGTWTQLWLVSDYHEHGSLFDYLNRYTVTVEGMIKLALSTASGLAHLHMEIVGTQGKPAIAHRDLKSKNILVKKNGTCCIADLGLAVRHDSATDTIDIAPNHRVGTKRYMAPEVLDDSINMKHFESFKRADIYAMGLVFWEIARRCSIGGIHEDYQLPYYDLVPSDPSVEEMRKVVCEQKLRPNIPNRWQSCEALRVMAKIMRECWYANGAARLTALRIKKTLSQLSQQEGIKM

| pKi | ALK5 pKi | Structure (SMILES) |
| --- | --- | --- |
| 8.10 to 8.90 | – | Cc1cccc(-c2nc3n(c2-c2ccc(F)c(NC(=O)CCN4CCN(C)CC4)c2)CCN3)n1 [Example 1, N-(2-fluoro-5-(6-(6-methylpyridin-2-yl)-2,3-dihydro-1H-imidazo[1,2-a]imidazol-5-yl)phenyl)-3-(4-methylpiperazin-1-yl)propanamide] |
| – | ≥9.0 | Cc1cccc(-c2nc3n(c2-c2ccc(F)c(NC(=O)CCN4CCCCC4)c2)CCN3)n1 [Example 2, N-(2-fluoro-5-(6-(6-methylpyridin-2-yl)-2,3-dihydro-1H-imidazo[1,2-a]imidazol-5-yl)phenyl)-3-(piperidin-1-yl)propanamide] |
| 8.10 to 8.90 | – | Cc1cccc(-c2nc3n(c2-c2ccc(F)c(NC(=O)CCN4CCN(CC(F)(F)F)CC4)c2)CCN3)n1 [Example 4, N-(2-fluoro-5-(6-(6-methylpyridin-2-yl)-2,3-dihydro-1H-imidazo[1,2-a]imidazol-5-yl)phenyl)-3-(4-(2,2,2-trifluoroethyl)piperazin-1-yl)propanamide] |
| 8.10 to 8.90 | – | Cc1cccc(-c2nc3n(c2-c2ccc(F)c(NCC4CCN(C)CC4)c2)CCN3)n1 [Example 14, 2-Fluoro-N-((1-methylpiperidin-4-yl)methyl)-5-(6-(6-methylpyridin-2-yl)-2,3-dihydro-1H-imidazo[1,2-a]imidazol-5-yl)aniline] |

Further lines, the compound ahead of its results:

| Structure (SMILES) | pKi | ALK5 pKi |
| --- | --- | --- |
| Cc1cccc(-c2nc3n(c2-c2ccc(F)c(NC(=O)CCN4CCN(CCO)CC4)c2)CCN3)n1 [Example 3, N-(2-fluoro-5-(6-(6-methylpyridin-2-yl)-2,3-dihydro-1H-imidazo[1,2-a]imidazol-5-yl)phenyl)-3-(4-(2-hydroxyethyl)piperazin-1-yl)propanamide] | 8.10 to 8.90 | – |
| Cc1cccc(-c2nc3n(c2-c2ccc(F)c(NC(=O)CN(C)C)c2)CCN3)n1 [Example 5, 2-(Dimethylamino)-N-(2-fluoro-5-(6-(6-methylpyridin-2-yl)-2,3-dihydro-1H-imidazo[1,2-a]imidazol-5-yl)phenyl)acetamide] | 7.50 to 8.00 | – |
| Cc1cccc(-c2nc3n(c2-c2ccc(F)c(NC(=O)CN4CCN(C)CC4)c2)CCN3)n1 [Example 6, N-(2-fluoro-5-(6-(6-methylpyridin-2-yl)-2,3-dihydro-1H-imidazo[1,2-a]imidazol-5-yl)phenyl)-2-(4-methylpiperazin-1-yl)acetamide] | 7.50 to 8.00 | – |
| Cc1cccc(-c2nc3n(c2-c2ccc(F)c(NC(=O)CCCN4CCN(C)CC4)c2)CCN3)n1 [Example 7, N-(2-fluoro-5-(6-(6-methylpyridin-2-yl)-2,3-dihydro-1H-imidazo[1,2-a]imidazol-5-yl)phenyl)-4-(4-methylpiperazin-1-yl)butanamide] | 8.10 to 8.90 | – |
| CN1CCN(CCC(=O)Nc2cc(-c3c(-c4cc(Cl)ccc4F)nc4n3CCN4)ccc2F)CC1 [Example 8, N-(5-(6-(5-chloro-2-fluorophenyl)-2,3-dihydro-1H-imidazo[1,2-a]imidazol-5-yl)-2-fluorophenyl)-3-(4-methylpiperazin-1-yl)propanamide] | 8.10 to 8.90 | – |
| Cc1cccc(-c2nc3n(c2-c2ccc(F)c(NC(=O)CCN(C)C)c2)CCN3)n1 [Example 9, 3-(Dimethylamino)-N-(2-fluoro-5-(6-(6-methylpyridin-2-yl)-2,3-dihydro-1H-imidazo[1,2-a]imidazol-5-yl)phenyl)propanamide] | ≥ 9.00 | – |
| O=C(CCN1CCCCC1)Nc1cc(-c2c(-c3cc(Cl)ccc3F)nc3n2CCN3)ccc1F [Example 10, N-(5-(6-(5-chloro-2-fluorophenyl)-2,3-dihydro-1H-imidazo[1,2-a]imidazol-5-yl)-2-fluorophenyl)-3-(piperidin-1-yl)propanamide] | ≥ 9.00 | – |
| Cc1cccc(-c2nc3n(c2-c2ccc(F)c(NC(=O)CCCN4CCCCC4)c2)CCN3)n1 [Example 11, N-(2-fluoro-5-(6-(6-methylpyridin-2-yl)-2,3-dihydro-1H-imidazo[1,2-a]imidazol-5-yl)phenyl)-4-(piperidin-1-yl)butanamide] | 8.10 to 8.90 | – |
| Cc1cccc(-c2nc3n(c2-c2ccc(F)c(NC(=O)CCC[N+]4(C)CCCCC4)c2)CCN3)n1 [Example 12, 1-(4-((2-Fluoro-5-(6-(6-methylpyridin-2-yl)-2,3-dihydro-1H-imidazo[1,2-a]imidazol-5-yl)phenyl)amino)-4-oxobutyl)-1-methylpiperidin-1-ium chloride hydrochloride] | 8.10 to 8.90 | – |
| Cc1cccc(-c2nc3n(c2-c2ccc(F)c(NC4CCN(C(C)C)CC4)c2)CCN3)n1 [Example 13, N-(2-fluoro-5-(6-(6-methylpyridin-2-yl)-2,3-dihydro-1H-imidazo[1,2-a]imidazol-5-yl)phenyl)-1-isopropylpiperidin-4-amine] | 7.50 to 8.00 | – |
